ChEMBL document CHEMBL1201862, “PubChem BioAssay data set” (2004)
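Tested at 5 concentrations; 48 h exposure; 96-well plates; endpoints linearly interpolated, else capped at highest concentration. GI50 marks 50% less growth.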 Active and inactive are the calls of the source. No stated cut-off is given here; in the data, active = GI50 up to about 1.1 µM and inactive = higher.

Assays:
Test in all cases: inhibition of tumour cell growth, NCI panel, 48 h
K562 = tested on: K562
BT-549 = tested on: BT-549
KM12 = tested on: KM12
SK-MEL-2 = tested on: SK-MEL-2
SF-295 = tested on: SF-295
IGROV-1 = tested on: IGROV-1
MDA-MB-231 = tested on: MDA-MB-231
M14 = tested on: M14
SK-MEL-5 = tested on: SK-MEL-5
RPMI-8226 = tested on: RPMI-8226
HCC 2998 = tested on: HCC 2998
CCRF-CEM = tested on: CCRF-CEM
NCI-H23 = tested on: NCI-H23
MDA-N = tested on: MDA-N
COLO 205 = tested on: COLO 205
HOP-62 = tested on: HOP-62
OVCAR-4 = tested on: OVCAR-4
T47D = tested on: T47D

Compound: CC12C(=O)OC(=O)C1(C)C1C=CC2O1 (stereo unspecified)
- GI50 (K562): > 100 µM (inactive)
- GI50 (BT-549): > 100 µM (inactive)
- GI50 (KM12): > 100 µM (inactive)
- GI50 (SK-MEL-2): > 100 µM (inactive)
- GI50 (SF-295): 62.8 µM (inactive)
- GI50 (IGROV-1): > 100 µM (inactive)
- GI50 (MDA-MB-231): 42.6 µM (inactive)
- GI50 (M14): 64.9 µM (inactive)
- GI50 (SK-MEL-5): 66.4 µM (inactive)
- GI50 (RPMI-8226): > 100 µM (inactive)
- GI50 (HCC 2998): > 100 µM (inactive)
- GI50 (CCRF-CEM): > 100 µM (inactive)
- GI50 (NCI-H23): > 100 µM (inactive)
- GI50 (MDA-N): > 100 µM (inactive)
- GI50 (COLO 205): > 100 µM (inactive)

Compound: CN1C(=O)C2(C)SC1(c1ccccc1)C1C(=O)N(c3ccccc3)C(=O)C12 (stereo unspecified)
- GI50 (K562): 57.4 µM (inactive)
- GI50 (BT-549): > 100 µM (inactive)
- GI50 (HOP-62): > 100 µM (inactive)
- GI50 (OVCAR-4): 41.3 µM (inactive)
- GI50 (KM12): 66.1 µM (inactive)
- GI50 (SK-MEL-2): 75 µM (inactive)
- GI50 (SF-295): 54.6 µM (inactive)
- GI50 (IGROV-1): 48 µM (inactive)
- GI50 (MDA-MB-231): > 100 µM (inactive)
- GI50 (M14): > 100 µM (inactive)
- GI50 (SK-MEL-5): 97.7 µM (inactive)
- GI50 (RPMI-8226): 49.8 µM (inactive)
- GI50 (NCI-H23): > 100 µM (inactive)
- GI50 (MDA-N): > 100 µM (inactive)
- GI50 (T47D): 52.2 µM (inactive)
- GI50 (COLO 205): 67.9 µM (inactive)

Compound: CC(C)CCCC(C)[C@H]1CC[C@H]2[C@@H]3CC[C@H]4C[C@@H](CCC=C(c5cc(Cl)c(O)c(C(=O)O)c5)c5cc(Cl)c(O)c(C(=O)O)c5)CC[C@]4(C)[C@H]3CC[C@]12C (stereo partly specified)
- GI50 (K562): 31.1 µM (inactive)
- GI50 (BT-549): > 50 µM (inactive)
- GI50 (HOP-62): > 50 µM (inactive)
- GI50 (OVCAR-4): > 50 µM (inactive)
- GI50 (KM12): > 50 µM (inactive)
- GI50 (SK-MEL-2): > 50 µM (inactive)
- GI50 (SF-295): > 50 µM (inactive)
- GI50 (IGROV-1): > 50 µM (inactive)
- GI50 (MDA-MB-231): > 50 µM (inactive)
- GI50 (M14): > 50 µM (inactive)
- GI50 (SK-MEL-5): 28.8 µM (inactive)
- GI50 (RPMI-8226): > 50 µM (inactive)
- GI50 (HCC 2998): > 50 µM (inactive)
- GI50 (CCRF-CEM): > 50 µM (inactive)
- GI50 (NCI-H23): > 50 µM (inactive)
- GI50 (T47D): > 50 µM (inactive)
- GI50 (COLO 205): > 50 µM (inactive)

Compound: CC(C)(C)OC(=O)N1CCC(NC(=O)NC2CCN(C(=O)OC(C)(C)C)CC2)CC1
- GI50 (BT-549): 0.118 µM (active)
- GI50 (HOP-62): > 100 µM (inactive)
- GI50 (OVCAR-4): > 100 µM (inactive)
- GI50 (KM12): > 100 µM (inactive)
- GI50 (SK-MEL-2): > 100 µM (inactive)
- GI50 (SF-295): > 100 µM (inactive)
- GI50 (IGROV-1): > 100 µM (inactive)
- GI50 (MDA-MB-231): > 100 µM (inactive)
- GI50 (M14): > 100 µM (inactive)
- GI50 (RPMI-8226): > 100 µM (inactive)
- GI50 (HCC 2998): > 100 µM (inactive)
- GI50 (CCRF-CEM): > 100 µM (inactive)
- GI50 (NCI-H23): > 100 µM (inactive)
- GI50 (MDA-N): > 100 µM (inactive)

Compound: COc1ccc2c(c1)c(=Cc1ccc(N(C)C)cc1)c1cc(-c3ccccc3)[n+](C)n12
- GI50 (K562): 0.214 µM (active)
- GI50 (BT-549): 0.0182 µM (active)
- GI50 (HOP-62): 1.36 µM (inactive)
- GI50 (OVCAR-4): 1.28 µM (inactive)
- GI50 (KM12): 0.448 µM (active)
- GI50 (SK-MEL-2): 0.452 µM (active)
- GI50 (SF-295): 0.264 µM (active)
- GI50 (IGROV-1): 0.144 µM (active)
- GI50 (MDA-MB-231): 0.274 µM (active)
- GI50 (M14): 0.312 µM (active)
- GI50 (SK-MEL-5): 0.304 µM (active)
- GI50 (RPMI-8226): 0.182 µM (active)
- GI50 (HCC 2998): 0.324 µM (active)
- GI50 (CCRF-CEM): 0.269 µM (active)
- GI50 (NCI-H23): 0.0592 µM (active)
- GI50 (MDA-N): 0.378 µM (active)
- GI50 (COLO 205): 0.0246 µM (active)

Compound: CC(C)(C)[Si](C)(C)OC1(CCc2ccccc2OS(=O)(=O)C(F)(F)F)CCCC=C1COCc1ccccc1 (stereo unspecified)
- GI50 (K562): 5.71 µM (inactive)
- GI50 (BT-549): > 100 µM (inactive)
- GI50 (HOP-62): > 100 µM (inactive)
- GI50 (OVCAR-4): 6.05 µM (inactive)
- GI50 (KM12): 14 µM (inactive)
- GI50 (SK-MEL-2): 4.59 µM (inactive)
- GI50 (SF-295): 6.34 µM (inactive)
- GI50 (IGROV-1): 4.81 µM (inactive)
- GI50 (MDA-MB-231): > 100 µM (inactive)
- GI50 (RPMI-8226): 2.95 µM (inactive)
- GI50 (CCRF-CEM): 5.19 µM (inactive)
- GI50 (NCI-H23): 9.62 µM (inactive)
- GI50 (T47D): 6.35 µM (inactive)
- GI50 (COLO 205): 5.85 µM (inactive)

Compound: CO/C(=N\N=C\c1ccc(Cl)cc1)c1ccncc1
- GI50 (K562): > 100 µM (inactive)
- GI50 (HOP-62): > 100 µM (inactive)
- GI50 (OVCAR-4): > 100 µM (inactive)
- GI50 (KM12): > 100 µM (inactive)
- GI50 (SK-MEL-2): > 100 µM (inactive)
- GI50 (SF-295): > 100 µM (inactive)
- GI50 (IGROV-1): > 100 µM (inactive)
- GI50 (M14): > 100 µM (inactive)
- GI50 (SK-MEL-5): > 100 µM (inactive)
- GI50 (RPMI-8226): > 100 µM (inactive)
- GI50 (HCC 2998): > 100 µM (inactive)
- GI50 (CCRF-CEM): > 100 µM (inactive)
- GI50 (NCI-H23): > 100 µM (inactive)
- GI50 (COLO 205): > 100 µM (inactive)

Compound: COC(=O)C1=CC2OC1(C)CCC2=O (stereo unspecified)
- GI50 (K562): 62.4 µM (inactive)
- GI50 (HOP-62): > 100 µM (inactive)
- GI50 (OVCAR-4): > 100 µM (inactive)
- GI50 (KM12): > 100 µM (inactive)
- GI50 (SK-MEL-2): > 100 µM (inactive)
- GI50 (SF-295): > 100 µM (inactive)
- GI50 (IGROV-1): > 100 µM (inactive)
- GI50 (M14): 44.6 µM (inactive)
- GI50 (RPMI-8226): 47.6 µM (inactive)
- GI50 (HCC 2998): > 100 µM (inactive)
- GI50 (CCRF-CEM): 35.1 µM (inactive)
- GI50 (NCI-H23): 99.3 µM (inactive)
- GI50 (COLO 205): > 100 µM (inactive)

Compound: N=C(N)SCCN1CCCCC1
- GI50 (K562): 20 µM (inactive)
- GI50 (BT-549): 25.1 µM (inactive)
- GI50 (HOP-62): 46.5 µM (inactive)
- GI50 (OVCAR-4): 31.6 µM (inactive)
- GI50 (KM12): 40.6 µM (inactive)
- GI50 (SK-MEL-2): 2.98 µM (inactive)
- GI50 (SF-295): > 100 µM (inactive)
- GI50 (IGROV-1): 36.6 µM (inactive)
- GI50 (MDA-MB-231): 22.8 µM (inactive)
- GI50 (M14): 19.9 µM (inactive)
- GI50 (SK-MEL-5): 48 µM (inactive)
- GI50 (RPMI-8226): 14.1 µM (inactive)
- GI50 (NCI-H23): 26.1 µM (inactive)
- GI50 (MDA-N): 30.2 µM (inactive)
- GI50 (T47D): 27.5 µM (inactive)
- GI50 (COLO 205): > 100 µM (inactive)
